Measured values published in paper PMC8789064, “High-Throughput-Methyl-Reading (HTMR) assay: a solution based on nucleotide methyl-binding proteins enables large-scale screening for DNA/RNA methyltransferases and demethylases” (Nucleic Acids Research, 2021).
Read-outs that look alike come from different tables or passages of the source.

Assays:
tri-MBD1 = molecular target: T1, tri-MBD1 (Homo sapiens, UniProt Q9UIS9); assay: Counter screen: binding of methyl-binding protein tri-MBD1 without enzyme
T1 construct: Genes encoding tri-MBD1 (tandem three MBD1 1–105 ORF); made in house; host or cells: E. coli BL21(DE3) codon plus RIPL
T1 sequence (Q9UIS9 with tags, fused parts or gaps): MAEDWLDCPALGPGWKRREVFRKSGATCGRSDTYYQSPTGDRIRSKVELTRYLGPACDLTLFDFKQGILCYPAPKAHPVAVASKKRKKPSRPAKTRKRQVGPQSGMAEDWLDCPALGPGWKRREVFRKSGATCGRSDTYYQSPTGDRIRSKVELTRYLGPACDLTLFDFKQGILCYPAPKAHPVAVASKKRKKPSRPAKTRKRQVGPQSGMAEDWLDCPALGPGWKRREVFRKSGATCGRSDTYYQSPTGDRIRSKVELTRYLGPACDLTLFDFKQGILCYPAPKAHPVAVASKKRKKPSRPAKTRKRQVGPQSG
Excerpt: (§1) False-positive compounds should be abandoned during the high-throughput screening. […] This entails replacing half of the substrate oligonucleotide with product oligonucleotide in the absence of the enzyme and adding the methyl-binding protein into the wells. The FP signal can then be measured according to the above steps.
(§2) Finally, we performed high-throughput screening against DNMT1 and ALKBH5 for an in-house library of 2000 compounds. […] Half of the substrate oligonucleotide was replaced with the product (chemical synthetic) in the assay (the enzyme was removed), in which case the false-positive compounds would still influence the FP signal value while the true hits would not. […] We performed a cofactor-competitive assay to evaluate the biological activity and mechanism of action of hit compounds.

METTL3/14 = molecular target: T2, METTL3/14 (Homo sapiens, UniProt Q86U44); assay: HTMR (FP-based) METTL3/METTL14 methylation assay; format: biochemical; settings: from IC50 vs SAM concentration line, Cheng-Prusoff
T2 construct: The full-length METTL3 and METTL14 plasmids were obtained from Professor Ping Yin; made in house; host or cells: E. coli BL21(DE3) codon plus RIPL
T2 sequence (Q86U44 whole entry): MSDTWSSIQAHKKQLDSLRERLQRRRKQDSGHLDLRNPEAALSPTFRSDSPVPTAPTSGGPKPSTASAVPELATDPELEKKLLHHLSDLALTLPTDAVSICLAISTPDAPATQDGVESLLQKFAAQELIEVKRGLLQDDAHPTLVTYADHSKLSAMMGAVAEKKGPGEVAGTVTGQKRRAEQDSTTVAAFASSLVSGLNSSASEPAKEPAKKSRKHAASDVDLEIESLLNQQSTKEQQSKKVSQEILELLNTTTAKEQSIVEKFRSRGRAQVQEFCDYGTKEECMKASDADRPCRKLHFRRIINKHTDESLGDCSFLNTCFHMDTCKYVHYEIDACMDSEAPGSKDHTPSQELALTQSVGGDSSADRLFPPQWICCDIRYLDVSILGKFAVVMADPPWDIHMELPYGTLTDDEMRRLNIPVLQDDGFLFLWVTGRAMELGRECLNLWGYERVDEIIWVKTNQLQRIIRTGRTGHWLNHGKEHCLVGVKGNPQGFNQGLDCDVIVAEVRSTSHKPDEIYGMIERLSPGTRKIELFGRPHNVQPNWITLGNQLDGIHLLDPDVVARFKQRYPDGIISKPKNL
Experimental: (§3) To start the assay, the binding curve of the substrate oligonucleotide and the product oligonucleotide (chemical synthetic) were titrated to determine the proper concentration of methyl-binding proteins. The final NaCl conditions of DNMT1, TET2, METTL3/14 and ALKBH5 were 400, 300, 250 and 250 mM, respectively. The assays could be performed in 10 μl + 10 μl, 20 μl + 20 μl (as in this study), or other formats in a black 384-well plate (Corning #3575). The former is the reaction volume containing enzyme, oligonucleotide, and cofactors, while the latter is the volume of methyl-binding protein. The reaction was initiated by the addition of the enzymes or the substrates and terminated by the addition of methyl-binding proteins. The FP signals were then measured in fluorescence polarization standard mode by EnVision Multilabel Reader (PerkinElmer) after 10–15 min of incubation. The plate can be repeatedly measured. […] All data were analyzed in GraphPad Prism 7.0.
The enzymes, oligonucleotides, and cofactors were diluted in a reaction buffer containing 20 mM HEPES, pH 7.4, 1 mM DTT and 0.4 U/μl RNase inhibitor (BBI Life sciences). […] After 10–15 min of incubation, the plate was read by Envision (PerkinElmer).
(§4) All the curves were plotted in the Graphpad prism 7.0. And the IC50 values were determined by the log(inhibitor) versus response—variable slope (four parameters) model in Graphpad prism 7.0. […]

DNMT1(351–1600) = molecular target: T3, DNMT1(351–1600) (Homo sapiens, UniProt P26358); assay: HTMR (FP-based) DNMT1 methylation assay; format: biochemical
T3 construct: The human DNMT1 (351–1600) gene with N terminal 6xHis tag and a TEV cleavage site; 6xHis (N); TEV cleavage site (N); made in house; host or cells: Spodoptera frugiperda Sf9 (baculovirus)
T3 sequence (P26358 351-1600): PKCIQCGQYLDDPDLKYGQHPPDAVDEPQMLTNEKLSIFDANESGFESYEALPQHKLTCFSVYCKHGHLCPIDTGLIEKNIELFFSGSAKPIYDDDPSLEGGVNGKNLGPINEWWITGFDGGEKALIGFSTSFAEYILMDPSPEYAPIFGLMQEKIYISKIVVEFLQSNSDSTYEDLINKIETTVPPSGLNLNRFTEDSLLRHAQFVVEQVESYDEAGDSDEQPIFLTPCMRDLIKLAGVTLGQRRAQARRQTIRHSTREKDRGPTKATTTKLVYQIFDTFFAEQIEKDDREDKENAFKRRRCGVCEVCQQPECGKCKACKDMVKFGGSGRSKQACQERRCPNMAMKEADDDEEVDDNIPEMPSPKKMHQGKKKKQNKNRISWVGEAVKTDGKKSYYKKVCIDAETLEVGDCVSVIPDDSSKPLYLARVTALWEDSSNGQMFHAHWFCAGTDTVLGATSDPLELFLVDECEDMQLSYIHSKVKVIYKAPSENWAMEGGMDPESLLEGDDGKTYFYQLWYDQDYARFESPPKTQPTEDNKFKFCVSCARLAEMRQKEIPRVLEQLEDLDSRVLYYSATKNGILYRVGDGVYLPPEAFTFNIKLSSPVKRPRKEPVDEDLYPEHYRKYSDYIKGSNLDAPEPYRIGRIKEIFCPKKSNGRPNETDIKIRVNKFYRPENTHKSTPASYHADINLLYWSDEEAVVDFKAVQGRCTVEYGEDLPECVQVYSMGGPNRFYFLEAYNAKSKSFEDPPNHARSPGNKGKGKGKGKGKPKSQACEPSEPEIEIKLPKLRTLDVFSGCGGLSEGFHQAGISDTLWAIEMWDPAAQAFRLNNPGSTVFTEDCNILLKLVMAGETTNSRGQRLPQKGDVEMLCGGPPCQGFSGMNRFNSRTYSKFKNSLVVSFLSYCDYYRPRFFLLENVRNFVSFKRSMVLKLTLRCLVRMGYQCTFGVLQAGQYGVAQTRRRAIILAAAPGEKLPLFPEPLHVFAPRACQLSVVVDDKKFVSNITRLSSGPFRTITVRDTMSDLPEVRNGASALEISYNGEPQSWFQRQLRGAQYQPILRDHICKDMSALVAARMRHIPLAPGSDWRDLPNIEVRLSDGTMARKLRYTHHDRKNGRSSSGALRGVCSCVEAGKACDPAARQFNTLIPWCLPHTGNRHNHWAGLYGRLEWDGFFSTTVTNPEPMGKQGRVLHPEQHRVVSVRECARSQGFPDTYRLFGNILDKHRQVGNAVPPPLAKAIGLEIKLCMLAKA
Experimental: To start the assay, the binding curve of the substrate oligonucleotide and the product oligonucleotide (chemical synthetic) were titrated to determine the proper concentration of methyl-binding proteins. […] The assays could be performed in 10 μl + 10 μl, 20 μl + 20 μl (as in this study), or other formats in a black 384-well plate (Corning #3575). The former is the reaction volume containing enzyme, oligonucleotide, and cofactors, while the latter is the volume of methyl-binding protein. The reaction was initiated by the addition of the enzymes or the substrates and terminated by the addition of methyl-binding proteins. The FP signals were then measured in fluorescence polarization standard mode by EnVision Multilabel Reader (PerkinElmer) after 10–15 min of incubation. […] All data were analyzed in GraphPad Prism 7.0.
The reaction components (enzyme, oligonucleotide and cofactors) were diluted in a reaction buffer containing 20 mM HEPES, pH 7.4, 1 mM EDTA and 1 mM DTT. […] This was followed by incubation for 10–15 min at RT (room temperature), after which the plate was read by EnVision (PerkinElmer).

DNMT1 = molecular target: T4, DNMT1 (Homo sapiens, UniProt P26358); assay: DNMT1 FP binding assay (DNA binding of the enzyme)
T4 construct: The human DNMT1 (351–1600) gene with N terminal 6xHis tag and a TEV cleavage site; 6xHis (N); TEV cleavage site (N); made in house; host or cells: Spodoptera frugiperda Sf9 (baculovirus)
T4 sequence (P26358 351-1600): as above
Experimental: (§5) The FP binding assay of DNMT1 and METTL3/14 was performed in a buffer containing 20 mM HEPES, pH 7.4, and 1 mM DTT. The FP binding assay of TET2 and ALKBH5 was performed in the reaction buffer that removes the NaCl. At high concentrations of NaCl (over 100 mM), weak FP signals were detected for the enzymes.

TET2 = molecular target: T5, TET2 (Homo sapiens, UniProt Q6N021); assay: HTMR (FP-based) TET2 demethylation assay; format: biochemical
T5 construct: made in house; host or cells: E. coli BL21(DE3) codon plus RIPL
Experimental: To start the assay, the binding curve of the substrate oligonucleotide and the product oligonucleotide (chemical synthetic) were titrated to determine the proper concentration of methyl-binding proteins. […] The reaction was initiated by the addition of the enzymes or the substrates and terminated by the addition of methyl-binding proteins. The FP signals were then measured in fluorescence polarization standard mode by EnVision Multilabel Reader (PerkinElmer) after 10–15 min of incubation. […] Additionally, this experiment must avoid strong light exposure.
The reaction buffer containing 20 mM HEPES, pH 8.0, 100 mM NaCl, 1 mM DTT, 1 mM ATP, 1 mM 2-OG, 2 mM ascorbic acid and 100 μM Fe2(NH4)2(SO4)2. Fe^2+ is the last to be added. The reaction contained 40 nM TET2 and 20 nM FAM-labeled fully-methylated DNA occurred at 37°C for 60 min. Next, 20 μl tri-MBD1 (500 nM as final concentration) protein was diluted in 20 mM HEPES, pH 7.4, 500 mM NaCl and transferred into wells to end the reaction. After 10–15 min of incubation, the plate was read by Envision (PerkinElmer).

ALKBH5 [1] = molecular target: T6, ALKBH5 (Homo sapiens, UniProt Q6P6C2); assay: HTMR (FP-based) ALKBH5 demethylation assay; format: biochemical; settings: different concentrations of 2-OG
T6 construct: The untagged MBD1 (1–105) and ALKBH5 (66–292) catalytic domain genes were subcloned; made in house; host or cells: E. coli BL21(DE3) codon plus RIPL
T6 sequence (Q6P6C2 66-292): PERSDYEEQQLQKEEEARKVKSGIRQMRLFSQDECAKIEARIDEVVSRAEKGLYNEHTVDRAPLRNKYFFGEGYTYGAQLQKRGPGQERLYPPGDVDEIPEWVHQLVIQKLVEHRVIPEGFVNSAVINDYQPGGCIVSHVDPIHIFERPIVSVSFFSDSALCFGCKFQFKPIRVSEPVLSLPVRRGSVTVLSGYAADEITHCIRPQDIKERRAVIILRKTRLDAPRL
Experimental: as §3, with “The reaction was initiated by the addition of the enzymes or the substrates and terminated by the addition of methyl-binding proteins.” left out
The reaction buffer containing 20 mM HEPES, pH 7.4, 250 mM NaCl, 200 μM 2-OG, 300 μM ascorbic acid, and 50 μM […]. […] The plate can then be read immediately or after 10–15 min of incubation due to an equal concentration of NaCl. After this, the plate can be read by EnVision (PerkinElmer).
as §4

ALKBH5(66–292) [2] = molecular target: T7, ALKBH5(66–292) (Homo sapiens, UniProt Q6P6C2); assay: Thermal shift assay; format: binding; settings: 5 μM ALKBH5, 100 μM compound (molar ratio 1:20); read-out: Tm shift (ΔTm) of ALKBH5
T7 construct: The untagged MBD1 (1–105) and ALKBH5 (66–292) catalytic domain genes were subcloned; made in house; host or cells: E. coli BL21(DE3) codon plus RIPL
T7 sequence (Q6P6C2 66-292): as above
Experimental: The thermal shift assay was performed with a QuantStudio 6 Flex real-time PCR machine (Applied Biosystems) with a buffer containing 20 mM HEPES, pH 7.4 and 100 mM NaCl. The final system was 20 μl, which contained 5 μM ALKBH5(66–292) protein, 1:1000 dilution of SYPRO Orange dye (purchased from Invitrogen, 5000× stock in DMSO), and DMSO or 100 μM compounds (final DMSO concentration was 0.1%). The samples were heated from 25 to 95°C (2.5°C/min). All samples were performed in triplicate and data were analyzed by Protein Thermal Shift Software version 1.3 (Applied Biosystems).

ALKBH5(66–292) [3] = molecular target: T7, ALKBH5(66–292); assay: NMR CPMG and STD experiments; format: binding; settings: 200 μM compound, 5 μM ALKBH5
Experimental: Saturation transfer difference (STD) and Carr-Purcell-Meiboom-Gill (CPMG) experiments were performed to investigate the interaction between the compound and the protein, as previously described ([65]). All NMR spectra were acquired on a Bruker Avance III 600 MHz NMR spectrometer equipped with a cryoprobe (Bruker Biospin, Germany). The 5 μM ALKBH5(66–292) protein and 200 μM compound were dissolved into a phosphate buffer containing 20 mM NaH2PO4, 20 mM Na2HPO4, pH 7.4, 100 mM NaCl, 95% D2O, 5% DMSO-d6 and then used in NMR data acquisition. Transverse relaxation-edited spectra were recorded using the water-suppressed CPMG pulse sequence. Sixty-four transients were collected into 48 076 data points with a spectral width of 8.0 kHz and an acquisition time of 3.0 s. STD spectrum was recorded using the pulse sequence of stddiffgp19.3 with water suppression (3–9–19 WATERGATE). The on and off resonance excitation positions were defined at –0.17 and 33 ppm, respectively. The bandwidth for the saturation pulse was set to 42.4 Hz. One hundred and twenty-eight transients were collected into 32,768 data points with a spectral width of 9.6 kHz and an acquisition time of 1.71 s.

ALKBH5 [4] = molecular target: T6, ALKBH5; assay: ALKBH5 FP binding assay (RNA binding of the enzyme)
Experimental: as §5

YTHDF1 = molecular target: T8, YTHDF1 (Homo sapiens, UniProt Q9BYJ9); assay: Counter screen: binding of methyl-binding protein YTHDF1 without enzyme; settings: ALKBH5 assay format, enzyme removed
T8 construct: YTHDF1 (361–559), YTHDF2 (380–579) and YTHDC1 (355–492) were chemically synthesized; made in house; host or cells: E. coli BL21(DE3) codon plus RIPL
T8 sequence (Q9BYJ9 361-559): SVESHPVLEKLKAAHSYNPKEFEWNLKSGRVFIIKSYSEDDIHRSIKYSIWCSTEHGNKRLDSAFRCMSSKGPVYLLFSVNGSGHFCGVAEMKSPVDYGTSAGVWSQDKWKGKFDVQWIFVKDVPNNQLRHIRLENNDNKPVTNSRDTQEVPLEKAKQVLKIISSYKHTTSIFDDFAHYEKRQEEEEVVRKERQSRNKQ
Excerpt: as §1, §2

GST-YTHDF1 YTH domain = molecular target: T9, GST-YTHDF1 YTH domain (UniProt Q9BYJ9 361-559); assay: fluorescence polarization; 250 mM NaCl; over 100-fold selectivity for m6A over unmodified RNA; FP, 384-well; methyl readers at final NaCl 400 mM (DNMT1 assay), 300 mM (TET2), 250 mM (METTL3/14, ALKBH5), 10-15 min; DNMT1 and METTL3/14 binding in 20 mM HEPES pH 7.4, 1 mM DTT with varied NaCl; TET2 and ALKBH5 in reaction buffer without NaCl; temperature not stated; settings: protein: recombinant; tags: N-terminal GST; label: 5'-FAM; single strand
T9 sequence: T8 sequence (Q9BYJ9 361-559)

[5] = molecular target: T10, tri-MBD1 (GST-MBD1-MBD1-MBD1) (UniProt Q9UIS9 1-105); assay: fluorescence polarization; 400 mM NaCl, 20 nM DNMT1 present; FP, 384-well; methyl readers at final NaCl 400 mM (DNMT1 assay), 300 mM (TET2), 250 mM (METTL3/14, ALKBH5), 10-15 min; DNMT1 and METTL3/14 binding in 20 mM HEPES pH 7.4, 1 mM DTT with varied NaCl; TET2 and ALKBH5 in reaction buffer without NaCl; temperature not stated; settings: protein: recombinant; tags: N-terminal GST (pGEX-6P-1); label: 5'-FAM top strand; blunt
T10 chain: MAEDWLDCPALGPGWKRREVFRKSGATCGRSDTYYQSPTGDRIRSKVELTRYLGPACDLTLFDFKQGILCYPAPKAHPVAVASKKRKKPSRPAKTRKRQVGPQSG

O=C(O)c1ccc(O)c2ncccc12 [IOX1, reference compound]
Effect on binding of tri-MBD1 (tri-MBD1; high concentration (over 50 μM)): can inhibit the binding of tri-MBD1

Nc1ncnc2c1ncn2[C@@H]1O[C@H](CSCC[C@H](N)C(=O)O)[C@@H](O)[C@H]1O [SAH]
Ki (METTL3/14): 2.06 ± 2.8 µM

O=c1oc2c(O)c(O)cc3c(=O)oc4c(O)c(O)cc1c4c23 [ellagic acid]
Mechanism with respect to cofactor SAM (DNMT1(351–1600); cofactor-competitive assay, increasing SAM): SAM-noncompetitive | IC50 (DNMT1(351–1600); different concentrations of SAM, read-out: IC50 against DNMT1): ~67 µM | Effect on DNA binding of DNMT1 (DNMT1): competed with the binding of DNA | Effect on DNA binding of DNMT1 (DNMT1; listed as Ellagic acid): disturbed the DNA-DNMT1 | Interference with the assay (counter screen) (tri-MBD1; DNMT1 assay format, enzyme removed): didn’t interference the assay

O=c1c(O)c(-c2ccc(O)c(O)c2)oc2cc(O)cc(O)c12 [quercetin]
Activity during the TET2 demethylation reaction (TET2): high activity | Change of IC50 in the ALKBH5 reaction with 2-OG concentration (ALKBH5 [1]): did not significantly change | ΔTm at 100 µM (ALKBH5(66–292) [2]): 2.57 °C | Direct binding to ALKBH5 catalytic domain (CPMG, STD) (ALKBH5(66–292) [3]): strongly bound | Effect on RNA binding of ALKBH5 (ALKBH5 [4]): did not affect the RNA binding of ALKBH5 | Effect on RNA binding of ALKBH5 (ALKBH5 [4]; listed as Quercetin): didn’t affect the RNA binding | Interference with the assay (counter screen) (YTHDF1): didn’t interference the assay

GAACCGGACUGUCUUA (ssRNA, m6A at position 8) [m6A-modified RNA]
binding result (GST-YTHDF1 YTH domain): binds

B1: fully-methylated DNA [M/M] (dsDNA)
DNA 1: TACGACCAGGAT
DNA 2: ATCCTGGTCGTA
modifications: 5mC at position 3 of top strand and position 9 of bottom strand
binding result [5]: binds
